# Test results taken from US11427548B2 (Arvinas Operations, Inc., priority 2015, dated 2022).
# Where two headings read alike, the source gives them in different places.
# Molecular target: T1, Androgen Receptor (Homo sapiens, UniProt P10275)
# T1 construct: endogenous in cells; host or cells: VCaP cells
# T1 sequence (P10275 1-920): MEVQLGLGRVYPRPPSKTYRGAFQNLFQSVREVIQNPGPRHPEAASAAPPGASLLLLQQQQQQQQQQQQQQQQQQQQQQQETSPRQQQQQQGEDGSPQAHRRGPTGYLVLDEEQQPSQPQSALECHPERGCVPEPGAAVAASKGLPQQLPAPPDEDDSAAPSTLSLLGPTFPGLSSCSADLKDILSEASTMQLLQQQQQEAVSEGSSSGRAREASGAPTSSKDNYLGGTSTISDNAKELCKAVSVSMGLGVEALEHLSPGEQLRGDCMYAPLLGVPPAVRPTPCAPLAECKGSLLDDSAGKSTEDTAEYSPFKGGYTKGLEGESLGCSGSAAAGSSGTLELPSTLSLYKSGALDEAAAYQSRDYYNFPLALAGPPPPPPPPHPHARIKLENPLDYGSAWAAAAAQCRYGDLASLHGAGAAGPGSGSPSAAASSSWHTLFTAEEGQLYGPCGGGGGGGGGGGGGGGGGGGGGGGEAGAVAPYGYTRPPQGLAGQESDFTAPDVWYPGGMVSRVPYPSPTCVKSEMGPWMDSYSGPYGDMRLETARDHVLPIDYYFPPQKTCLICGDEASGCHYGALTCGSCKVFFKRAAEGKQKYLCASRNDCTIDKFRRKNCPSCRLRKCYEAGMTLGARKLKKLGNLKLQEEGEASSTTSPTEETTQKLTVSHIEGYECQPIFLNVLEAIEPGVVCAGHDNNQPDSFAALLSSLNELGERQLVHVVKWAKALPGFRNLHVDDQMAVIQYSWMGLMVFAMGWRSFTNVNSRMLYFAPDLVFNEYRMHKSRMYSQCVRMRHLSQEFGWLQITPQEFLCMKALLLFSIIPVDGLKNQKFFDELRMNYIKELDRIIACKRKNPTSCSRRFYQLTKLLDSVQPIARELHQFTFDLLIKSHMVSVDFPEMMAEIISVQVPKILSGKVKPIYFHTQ
# Assay: Androgen Receptor ELISA assay (PathScan AR ELISA) in VCaP cells: AR degradation, Dmax and DC50
# Assay type: cell-based
# Summary of the method: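 After 24 h exposure of VCaP cells (charcoal-stripped serum, 0.1 nM R1881 agonist, 0.1% DMSO) to seven half-log compound concentrations, residual AR in lysates was measured by PathScan ELISA (TMB absorbance, 450 nm). Cells were plated at 30,000/well and grown at least 3 days beforehand.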
# [1] = VCaP cells; Table 36; read-out: VCaP DC50
# [2] = VCaP, VCaP cells; Table 36; read-out: VCaP Dmax (%)
# [3] = VCaP cells; Table 35; read-out: VCaP DC50
# [4] = VCaP, VCaP cells; Table 35; read-out: VCaP Dmax (%)
# [5] = read-out: VCaP DC50; concentration that caused 50% Androgen Receptor degradation, VCaP cells (Table 32)
structure (smiles),measurement,setting,value
"Cc1ncoc1-c1ccc(CNC(=O)[C@@H]2C[C@@H](O)CN2C(=O)[C@@H](NC(=O)COCCOc2ccc(Oc3ccc(C(=O)N[C@H]4C(C)(C)[C@H](Oc5ccc(C#N)c(Cl)c5)C4(C)C)cc3)cc2)C(C)(C)C)cc1 [Example 186, (2S,4R)-1-[(2S)-3,3-dimethyl-2-(2-{2-[4-(4-{[trans-3-(3-chloro-4-cyanophenoxy)-2,2,4,4-tetramethylcyclobutyl]carbamoyl}phenoxy)phenoxy]ethoxy}acetamido)butanoyl]-4-hydroxy-N-{[4-(4-methyl-1,3-oxazol-5-yl)phenyl]methyl}pyrrolidine-2-carboxamide]",Dmax,"VCaP, highest percentage of Androgen Receptor degradation observed, VCaP cells (Table 32); read-out: VCaP Dmax (%)",> 71%
same,DC50,"concentration that caused 50% Androgen Receptor degradation, VCaP cells (Table 32); read-out: VCaP DC50",< 50 nM
Cc1ncsc1-c1ccc(CNC(=O)C2C[C@@H](O)CN2C(=O)[C@@H](NC(=O)CN(C)c2ccc(OCCOc3ccc(N4C(=S)N(c5ccc(C#N)c(C(F)(F)F)c5)C(=O)C4(C)C)cc3)cc2)C(C)(C)C)cc1 (stereo partly drawn) [Example 379],Dmax,"VCaP, read-out: VCaP Dmax (%)",51 to 70%
same,DC50,read-out: VCaP DC50; VCaP cells; Table 34,< 50 nM
"Cc1ncsc1-c1ccc([C@H](C)NC(=O)[C@@H]2C[C@@H](O)CN2C(=O)[C@@H](NC(=O)CN2CCN(CCCOCc3cc(C(=O)N[C@@H](C)Cn4ccc(-c5ccc(C#N)c(Cl)c5)n4)n[nH]3)CC2)C(C)(C)C)cc1 [Example 698, N-((S)-1-(3-(3-chloro-4-cyanophenyl)-1H-pyrazol-1-yl)propan-2-yl)-5-((3-(4-(2-(((S)-1-((2S,4R)-4-hydroxy-2-(((S)-1-(4-(4-methylthiazol-5-yl)phenyl)ethyl)carbam-oyl)pyrrolidin-1-yl)-3,3-dimethyl-1-oxobutan-2-yl)amino)-2-oxoethyl)piperazin-1-yl)propoxy)methyl)-1H-pyrazole-3-carboxamide]",DC50,[1],< 50 nM
same,Dmax,[2],> 71%
"Cc1ncsc1-c1ccc([C@H](C)NC(=O)[C@@H]2CC(O)CN2C(=O)[C@H](C(C)C)n2nccc2OCCCCCNc2ccc(C(=O)N[C@H]3C(C)(C)[C@H](Oc4ccc(C#N)c(Cl)c4)C3(C)C)cc2)cc1 (stereo partly drawn) [Example 625, (2S,4R)-1-((R)-2-(5-((5-((4-(((1r,3r)-3-(3-chloro-4-cyanophenoxy)-2,2,4,4-tetramehtylcyclobutyl)carbamoyl)phenyl)amino)pentyl)oxy)-1H-pyrazol-1-yl)-3-methylbutanoyl)-4-hydroxy-N-((S)-1-(4-(4-methylthiazol-5-yl)phenyl)ethyl)pyrrolidine-2-carboxamide]",VCaP Dmax (%),VCaP cells; Table 36,++ (26% ≤ Dmax ≤ 50%)
same,DC50,[1],> 501 nM
C[C@H](NC(=O)[C@@H]1C[C@@H](O)CN1C(=O)[C@@H](NC(=O)COCCCCOc1ccc(C(=O)N[C@H]2C(C)(C)[C@H](Oc3ccc(C#N)c(Cl)c3)C2(C)C)cc1)C(C)(C)C)c1ccc(-c2ncon2)cc1 [Example 569],DC50,[3],< 50 nM
same,Dmax,[4],> 71%
"Cc1ncsc1-c1ccc([C@H](C)NC(=O)C2C[C@@H](O)CN2C(=O)[C@@H](NC(=O)COCCN2CCN(c3ccc(C(=O)N[C@H]4C(C)(C)[C@H](Oc5ccc(C#N)c(Cl)c5)C4(C)C)cn3)C[C@H]2CO)C(C)(C)C)cc1 (stereo partly drawn) [Example 788, N-((1r,3S)-3-(3-chloro-4-cyanophenoxy)-2,2,4,4-tetramethylcyclobutyl)-6-((3S)-4-(2-(2-(((2S)-1-((4R)-4-hydroxy-2-(((S)-1-(4-(4-methylthiazol-5-yl)phenyl)ethyl)carbamoyl)pyrrolidin-1-yl)-3,3-dimethyl-1-oxobutan-2-yl)amino)-2-oxoethoxy)ethyl)-3-(hydroxymethyl)piperazin-1-yl)nicotinamide]",DC50,[1],< 50 nM
same,Dmax,[2],> 71%
Cc1ncsc1-c1ccc(CNC(=O)[C@@H]2C[C@@H](O)CN2C(=O)[C@@H](NC(=O)COCCCOCCCCCOc2ccc(N3C(=S)N(c4ccc(C#N)cc4)C(=O)C3(C)C)cc2)C(C)(C)C)cc1 [Example 479],Dmax,[4],26 to 50%
"C[C@H](NC(=O)[C@@H]1C[C@@H](O)CN1C(=O)[C@@H](NC(=O)COCCCCOc1ccc(-c2ccc(N3C(=S)N(c4ccc(C#N)c(Cl)c4)C(=O)C3(C)C)cc2)cc1)C(C)(C)C)c1ccc(-c2cnco2)cc1 [Example 132, (2S,4R)-1-[(2S)-2-{2-[4-(4-{4-[3-(3-chloro-4-cyanophenyl)-5,5-dimethyl-4-oxo-2-sulfanylideneimidazolidin-1-yl]phenyl}phenoxy)butoxy]acetamido}-3,3-dimethylbutanoyl]-4-hydroxy-N-[(1S)-1-[4-(1,3-oxazol-5-yl)phenyl]ethyl]pyrrolidine-2-carboxamide]",Dmax,"VCaP, read-out: VCaP Dmax (%)",> 71%
same,DC50,[5],< 50 nM
"Cc1ncoc1-c1ccc([C@H](C)NC(=O)[C@@H]2C[C@@H](O)CN2C(=O)[C@@H](NC(=O)COCCCCOc2ccc(-c3ccc(N4C(=S)N(c5ccc(C#N)c(C(F)(F)F)c5)C(=O)C4(C)C)cc3)cc2)C(C)(C)C)cc1 [Example 101, (2S,4R)-1-[(2S)-2-(2-{4-[4-(4-{3-[4-cyano-3-(trifluoromethyl)phenyl]-5,5-dimethyl-4-oxo-2-sulfanylideneimidazolidin-1-yl}phenyl)phenoxy]butoxy}acetamido)-3,3-dimethylbutanoyl]-4-hydroxy-N-[(1S)-1-[4-(4-methyl-1,3-oxazol-5-l)phenyl]ethyl]pyrrolidine-2-carboxamide]",Dmax,"VCaP, read-out: VCaP Dmax (%)",> 71%
same,DC50,[5],< 50 nM
Cc1ncsc1-c1ccc([C@H](C)NC(=O)[C@@H]2C[C@@H](O)CN2C(=O)[C@@H](NC(=O)COCCCCCNc2ccc(C(=O)N[C@H]3C(C)(C)[C@H](Oc4cnc(C#N)c(C(F)(F)F)c4)C3(C)C)cc2)C(C)(C)C)cc1 [Example 497],DC50,[3],< 50 nM
same,Dmax,[4],51 to 70%
"Cc1ncsc1-c1ccc([C@H](C)NC(=O)[C@@H]2C[C@@H](O)CN2C(=O)[C@@H](NC(=O)CN2CCN(C3CC4(C3)CN(c3ccc(C(=O)N[C@H]5C(C)(C)[C@H](Oc6ccc(C#N)c(Cl)c6)C5(C)C)cn3)C4)CC2)C(C)(C)C)cc1 [Example 809, N-((1r,3r)-3-(3-chloro-4-cyanophenoxy)-2,2,4,4-tetramethylcyclobutyl)-6-(6-(4-(2-(((S)-1-((2S, 4R)-4-hydroxy-2-(((S)-1-(4-(4-methylthiazol-5-yl)phenyl)ethyl)carbamoyl)pyrrolidin-1-yl)-3,3-dimethyl-1-oxobutan-2-yl)amino)-2-oxoethyl)piperazin-1-yl)-2-azaspiro[3.3]heptan-2-yl)n icotinamide]",DC50,[1],< 50 nM
same,Dmax,"VCaP, read-out: VCaP Dmax (%)",> 71%
Cc1ncsc1-c1ccc(CNC(=O)[C@@H]2C[C@@H](O)CN2C(=O)[C@@H](NC(=O)COCC2CCN(c3ccc(C(=O)N[C@H]4C(C)(C)[C@H](Oc5ccc(C#N)c(Cl)c5)C4(C)C)cc3)CC2)C(C)(C)C)cc1 [Example 410],DC50,VCaP cells; Table 34; read-out: VCaP DC50,< 50 nM
same,Dmax,"VCaP, VCaP cells; Table 34; read-out: VCaP Dmax (%)",> 71%
"CC(=O)N[C@H](C(=O)N1C[C@H](O)C[C@H]1C(=O)N[C@@H](C)c1ccc(-c2scnc2C)cc1)[C@@H](C)OCCCN(C)CCc1ccc(C(=O)N[C@H]2C(C)(C)[C@H](Oc3ccc(C#N)c(Cl)c3)C2(C)C)cc1 [Example 734, (2S,4R)-1-(N-acetyl-O-(3-((4-(((1r,3r)-3-(3-chloro-4-cyanophenoxy)-2,2,4,4-tetramethylcyclobutyl)carbamoyl)phenethyl)(meth-yl)amino)propyl)-L-threonyl)-4-hydroxy-N-((S)-1-(4-(4-methylthiazol-5-yl)phenyl)ethyl)pyrrolidine-2-carboxamide]",DC50,[1],> 501 nM
same,Dmax,[2],< 25%
"Cc1ncsc1-c1ccc(CNC(=O)[C@@H]2C[C@@H](O)CN2C(=O)[C@@H](NC(=O)COCCCCOc2ccc(-c3ccc(N4C(=S)N(c5cnc(C#N)c(C(F)(F)F)c5)C(=O)C45CCC5)cc3)cc2)C(C)(C)C)cc1 [Example 199, (2S,4R)-1-[(2S)-2-(2-{4-[4-(4-{7-[6-cyano-5-(trifluoromethyl)pyridin-3-yl]-8-oxo-6-sulfanylidene-5,7-diazaspiro[3.4]octan-5-yl}phenyl)phenoxy]butoxy}acetamido)-3,3-dimethylbutanoyl]-4-hydroxy-N-{[4-(4-methyl-1,3-thiazol-5-yl)phenyl]methyl}pyrrolidine-2-carboxamide]",DC50,VCaP cells; concentration that caused 50% Androgen Receptor degradation; read-out: VCaP DC50,< 50 nM
same,Dmax,"VCaP, VCaP cells; highest percentage of Androgen Receptor degradation; read-out: VCaP Dmax (%)",51 to 70%
